Data: patent US20180362993A1, “ELICITOR-DERIVED PEPTIDES AND USE THEREOF” (Plant Health Care, Inc., priority 2017, published 2018)
Marks after values point to notes of the source that are not given here.

Assays:
Assay type in all cases: in vivo
soy = assay: Drought resistance in seed-treated soy; details: vs mock
Method: The effectiveness of peptide treatment in reducing drought stress was assessed in soy using a seed treatment strategy. This strategy largely mirrors examples 3 and 4.
Seeds were first sieved using mesh screens to a uniform size (14-17 mesh). The seeds were then coated with a mixture of peptide and Unicoat™ seed coat polymer in a Hege 11 Liquid Seed Treater (Wintersteiger) according to manufacturer recommendations. […]
3.5 inch pots were filled (approximately 0.2 L per pot) with Sunshine #1 mix (SunGro Horticulture), fertilized with 14-14-14 N,P,K Osmocote (Everris), and mixed for 20 minutes using a soil mixer M-5. Seeds were planted at a depth of 0.5 inch for germination. The pots were immediately irrigated by submergence then drained after about an hour. For each treatment group, 24 replicate seeds were planted. Plants were grown in a greenhouse under 16 hour light days at ˜75° F. and 8 hour dark nights at ˜65° F. Prior to drought conditions, the plants were well-watered.
Seven days after germination the heights of the plants were measured. This was determined as the distance between the soil surface and the shoot apical meristems (buds). The plants were randomized using a complete block design and subjected to a cyclic drought stress. Drought stress was imposed by withholding water for 3-4 days until the majority of plants were under medium to severe water stress. The severity of the stress was determined by the weight of the pot and visual determination of loss of turgor in the leaves (drooping). Once drought stress was attained, the pots were watered to full saturation. Full Saturation (100% pot capacity) is defined as the weight of the pot filled with water-saturated soil minus the weight of the filled pot prior to adding water. Drought stress was imposed for a total of 18 days.
At the end of the experiment (18 days after initiation of drought stress), the plant above the soil surface was then harvested for fresh and dry weights. Individual plants were cut near the soil surface and weighed immediately (fresh weight). The plants were then placed into labeled brown paper bags and dried in a 70° C. oven for 72 hours. A dry weight was then obtained. The following calculation was performed on the collected data: Fresh weight at harvest, and dry weight at harvest for the peptide-treated plants were expressed as a % change relative to the ‘mock’ treated plants.

corn = assay: Drought resistance in corn (foliar spray); details: for Dry Weight Increase / Fresh Weight Increase: corn, vs untreated control
Method: The effectiveness of peptide treatment in reducing drought stress was assessed in corn. 3.5 inch pots were filled with Sunshine #1 soil (SunGro Horticulture), fertilized with a 20-10-20 mixture. The soil was soaked and drained overnight. Seeds (either corn or soy, manually inspected to ensure uniform seed size) were planted at a depth of 1 inch for germination. Plants were grown in a greenhouse under 16 hour light days at >70° F. and 8 hour dark nights at >65° F. Prior to drought conditions, the plants were well-watered.
When the plants reached the V1 stage, plants were culled to achieve a uniform height (abnormally large and small plants were removed). Plants were then randomly assigned to control (spray without peptide) or treatment (spray with peptide) groups and heights were measured. Peptide was made up in a solution of 0.2 μg/ml or 2μg/ml in distilled water+0.01% Tween-20, and applied as a fine mist from a spray bottle until the solution drips from the leaves. After the peptide solutions were dried, the plants were again randomized in a randomized complete block design. Drought stress was initiated after the peptide treatment. This was caused by maintaining the water level at 25-50% of the maximum capacity for water (capacity was decided as the weight of the pot filled with saturated soil minus the weight of the filled pot prior to adding water).
The drought test phase ended after 2-3 weeks. At that time, the plant height was again measured and the growth rate was calculated as the difference between this and the previously-recorded height. The above-ground part portions of the plants were harvested and weighed to obtain fresh weight. The above-ground portion was also dried in an oven at 70° C. for 72 hours to obtain dry weight. All calculations were compared with matched untreated control plants.
The drought testing procedure was carried out in corn using a treatment of P12, P13-10, P13-11, P13-12, P13-14, P13-4, and P13-15 (SEQ ID NOs: 5, 16, 17, 18, 20, 10, and 21). Asterisks indicate statistical significance by P-value (*: P<0.1 and **: P<0.05)

[1] = system: tobacco mosaic virus (TMV); assay: Induction of resistance to tobacco mosaic virus in tobacco (foliar spray); details: 20 μg/ml spray; for Effectiveness Covered (% decline in TMV lesions vs UTC): covered leaf (systemic response); for Effectiveness Uncovered (% decline in TMV lesions vs UTC): uncovered leaf (local response)
Method: Peptides were tested for the induction of resistance to tobacco mosaic virus (TMV) in tobacco. Briefly, three tobacco plants at 6-8 weeks old were selected per group (samples and controls). The bottom-most leaf of the plant was covered and the plant was sprayed with a solution of water (untreated control—UTC), peptide, or Proact (positive control). The spray was applied until the leaves were fully wetted, indicated by liquid dripping from the leaves. The plants were then allowed to dry and the leaf covering was removed.
Three days post-treatment, the previously-covered leaf and a leaf on the opposite side of the plant were then lightly dusted with diatomaceous earth and 20 ul of a 1.7 μg/ml solution of purified tobacco mosaic virus was applied. The TMV solution was then spread across the leaf surface by lightly rubbing solution and the diatomaceous earth across the surface of the leaves. Two minutes after inoculation, the diatomaceous earth was rinsed off the leaves with water. 3 days after TMV inoculation, the leaves were scored based on the number of TMV lesions observed. The leaf was also scored for signs of the hypersensitive response, including yellowing and wilting of the affected leaves.
Effectiveness described in Table 5 refers to the % decline in TMV lesions on treated vs UTC plants. A reduction of TMV on covered leaves indicates a systemic immune response in the plant while reduction on uncovered leaves indicates a local response. Asterisks indicate that the P-value derived from a T-test was <0.05.

## LSGAGQTSGMSPMEQLMKIFADITQSLFGDQDG (P13-11 peptide) [Peptide P13-11]
soy; soy seed treatment 0.9 μg/seed
  % Change Dry Weight: 0.16%
  % Change Fresh Weight: 3.42%
corn; foliar spray 0.2 μg/ml
  Dry Weight Increase: 4.91* %
  Fresh Weight Increase: 3.81* %
[1]
  Effectiveness Covered (% decline in TMV lesions vs UTC): 73.1%
  Effectiveness Uncovered (% decline in TMV lesions vs UTC): 74.9* %

## DDSLSGAGQTSGMSPMEQLMKIFADITQSLFGDQDG (P13-10 peptide) [Peptide P13-10]
soy; soy seed treatment 0.1 μg/seed
  % Change Dry Weight: −1.66%
  % Change Fresh Weight: 1.01%
corn; foliar spray 2 μg/ml
  Dry Weight Increase: 7.56* %
  Fresh Weight Increase: 4.44%
[1]
  Effectiveness Covered (% decline in TMV lesions vs UTC): 92.4%
  Effectiveness Uncovered (% decline in TMV lesions vs UTC): 90.6* %

## AGQTSGMSPMEQLMKIFADITQSLFGDQDG (P13-12 peptide) [Peptide P13-12]
soy; soy seed treatment 0.9 μg/seed
  % Change Dry Weight: −0.37%
  % Change Fresh Weight: 0.77%
corn; corn foliar spray
  Drought tolerance activity in corn, result in words: affords activity
corn; foliar spray 0.2 μg/ml
  Dry Weight Increase: 7.31* %
  Fresh Weight Increase: 3.93* %
[1]
  Effectiveness Covered (% decline in TMV lesions vs UTC): 37.9%
  Effectiveness Uncovered (% decline in TMV lesions vs UTC): 44.1%
